These are literature values, as cited in patent publication US10307430B2, “KATP antagonists (glibenglamid) for use for promoting growth and/or treating hyperglycaemia of a premature infant” (ASSISTANCE PUBLIQUE—HOPITAUX DE PARIS, priority 2011, dated 2019).

The test system of one data set is human fetal β cells. Conditions: human fetal β cells from 14 to 20 week gestational fetus (Weinhaus et al., 2003).
The conditions of data set [1]: preterm newborn infants, when used with caution (Mitanchez, 2007; Beardsall and Dunger, 2008).
For data set [2] the following is noted: intravenous, first week of life, very low birth weight infants (Beardsall et al., 2007).
Setting [3] is: early insulin replacement, intravenous (Beardsall et al., 2008).

As to `COC(=O)C1=C(C)NC(C)=C([N+](=O)[O-])C1c1ccccc1C(F)(F)F` (stereo not shown) [BAY K8644], the “insulin secretion in response to secretagogue” value (from here on “insulin secretion in response”) with human fetal β cells is recorded as “able to secrete insulin”.

For `[Cl-].[K+]` [KCl], the “insulin secretion in response” value in the data set with human fetal β cells is “able to secrete insulin”.

As to `Cc1cnc(C(=O)NCCc2ccc(S(=O)(=O)NC(=O)NC3CCCCC3)cc2)cn1` [glipizide], the “insulin secretion in response” value in the data set with human fetal β cells is on record as “able to secrete insulin”.

Take insulin: the endogenous glucose production entry in data set [1] is “efficient to reduce endogenous glucose production”. Under setting [3], the risk of hypoglycaemia result is listed as “increased risk of hypoglycaemia” and the “weight loss in the first week of life” value was “reduced weight loss”. Further, the glucose control result (early insulin replacement, intravenous, 194 very-low-birth-weight infants (Beardsall et al., 2008)) is recorded as “improved glucose control”. For the setting “early insulin therapy, infants with very low birth weight (Beardsall et al., 2008)”, the clinical benefit entry is “no clinical benefit”. In data set [2], the IGF-I levels entry is on record as “increases IGF-I levels” and the blood glucose control entry is reported as “improves blood glucose control”.
